According to patent US8227601B2, “Diaryl-purines, azapurines and -deazapurines as non-nucleoside reverse transcriptase inhibitor for treatment of HIV” (priority 2005, dated 2012):

Tests used:
Test in all cases: microbe, parasite or virus in culture
Type in all cases: cell-based, human immunodeficiency virus type 1 (HIV-1)
[1] = system: wild type HIV-1; settings: Human immunodeficiency virus 1, Hela-JC53, read-out: EC50 WT (nM)
[2] = system: HIV-1 L1001-K103N; settings: Human immunodeficiency virus 1, read-out: EC50 L1001-K103N (nM), L1001-K103N mutant
[3] = system: HIV-1 Y188L; settings: Human immunodeficiency virus 1, read-out: EC50 Y188L (nM)
[4] = system: HIV-1 Y181C; settings: Human immunodeficiency virus 1, read-out: EC50 Y181C (nM), Y181C mutant

SMILES | EC50 [1] [nM] | EC50 [2] [nM] | EC50 [3] [nM] | EC50 [4] [nM]
Cc1cc(C)c(Oc2nc(Nc3ccc(C(F)(F)F)cc3)nc3[nH]cnc23)c(C)c1 [Cpd 38] | 10 to 100 | > 100 | > 100 | > 100
Cc1cc(C)c(Sc2nc(Nc3ccc(C#N)cc3)nc3ccn(Cc4ccccc4)c23)c(C)c1 [Cpd 48] | 10 to 100 | > 100 | > 100 | 10 to 100
Cc1cc(C#N)cc(C)c1Oc1nc(Nc2ccc(C#N)cc2)nc2[nH]cnc12 [Cpd 25] | < 10 | 10 to 100 | < 10 | < 10
Cc1ccc(Nc2nc(Nc3ccc(C#N)cc3)nc3[nH]cnc23)c2ccccc12 [Cpd 20] | < 10 | > 100 | > 100 | 10 to 100
Cc1cc(C)c(Oc2nc(Nc3ccc(C#N)c(C(F)(F)F)c3)nc3[nH]cnc23)c(C)c1 [Cpd 40] | 10 to 100 | 10 to 100 | > 100 | 10 to 100
Cc1cc(C#N)cc(C)c1Oc1nc(Nc2ccc(C#N)cc2)nc2c(Cl)cn(C)c12 [Cpd 69] | < 10 | < 10 | < 10 | < 10
Cc1cc(Cl)cc(C)c1Oc1nc(Nc2ccc(C#N)cc2)nc2cc[nH]c12 [Cpd 66] | < 10 | < 10 | < 10 | < 10
Cc1cc(C)c(Oc2nc(Nc3ccc(C#N)cc3)nc3c2ncn3C)c(C)c1 [Cpd 45] | < 10 | 10 to 100 | < 10 | < 10
CC(=O)c1cc(C)c(Oc2nc(Nc3ccc(C#N)cc3)nc3cc[nH]c23)c(C)c1 [Cpd 61] | < 10 | < 10 | < 10 | < 10
Cc1cc(C)c(Sc2nc(Nc3ccc(C#N)cc3)nc3c(Cl)cn(Cc4ccccc4)c23)c(C)c1 [Cpd 54] | < 10 | > 100 | 10 to 100 | 10 to 100
Cc1cc(Br)cc(Cl)c1Oc1nc(Nc2ccc(C#N)cc2)nc2[nH]ccc12 [Cpd 10] | < 10 | 10 to 100 | 10 to 100 | 10 to 100
Cc1cc(C#N)cc(C)c1Oc1nc(Nc2ccc(C#N)cc2)nc2c(Cl)c[nH]c12 [Cpd 49] | < 10 | < 10 | < 10 | < 10
Cc1cc(C)c(Oc2nc(Nc3ccc(F)cc3)nc3[nH]cnc23)c(C)c1 [Cpd 34] | < 10 | 10 to 100 | 10 to 100 | < 10
Cc1cc(C)c(Oc2nc(Nc3ccc(C#N)cc3)nc3ccn(Cc4ccccc4)c23)c(C)c1 [Cpd 64] | < 10 | > 100 | > 100 | 10 to 100
Cc1cc(C#N)cc(C)c1Oc1nc(Nc2ccc(C#N)cc2)nc2c1ccn2C [Cpd 13] | < 10 | < 10 | < 10 | < 10
N#Cc1ccc(Nc2nc(Nc3ccc(C#N)cc3)c3nc[nH]c3n2)cc1 [Cpd 24] | 10 to 100 | > 100 | > 100 | > 100
CCN(c1ccc(C#N)cc1)c1nc(Oc2c(C)cc(C#N)cc2C)c2c(ccn2CC)n1 [Cpd 46] | > 100 | > 100 | > 100 | > 100
Cc1cc(C2CC2)cc(C)c1Oc1nc(Nc2ccc(C#N)cc2)nc2[nH]ccc12 [Cpd 33] | < 10 | 10 to 100 | 10 to 100 | 10 to 100
Cc1cc(C)c(Sc2nc(Nc3ccc(C#N)cc3)nc3[nH]ccc23)c(C)c1 [Cpd 2] | < 10 | > 100 | 10 to 100 | 10 to 100
Cc1cc(C)c(Oc2nc(Nc3ccc(S(N)(=O)=O)cc3)nc3[nH]cnc23)c(C)c1 [Cpd 12] | 10 to 100 | > 100 | > 100 | > 100
Cc1cc(C)c(Oc2nc(Nc3ccc(C(N)=O)cc3)nc3[nH]cnc23)c(C)c1 [Cpd 15] | 10 to 100 | > 100 | > 100 | > 100
COC(=O)c1ccc(Nc2nc(Oc3c(C)cc(C)cc3C)c3nc[nH]c3n2)cc1 [Cpd 14] | < 10 | > 100 | > 100 | > 100
Cc1cc(C)c(Nc2nc(Nc3ccc(C#N)cc3)nc3[nH]ccc23)c(C)c1 [Cpd 4] | < 10 | 10 to 100 | 10 to 100 | 10 to 100
Cc1cc(C)c(Oc2nc(Nc3ccc(C#N)cc3)nc3[nH]ccc23)c(C)c1 [Cpd 1] | < 10 | 10 to 100 | 10 to 100 | 10 to 100
Cc1cc(C#N)cc(C)c1Oc1nc(Nc2ccc(C#N)cc2)nc2ccn(Cc3ccccc3)c12 [Cpd 41] | < 10 | 10 to 100 | 10 to 100 | < 10
Cc1cc(C#N)cc(C)c1Oc1nc(Nc2ccc(C#N)cc2)nc2c(Cl)cn(Cc3ccccc3)c12 [Cpd 56] | 10 to 100 | 10 to 100 | 10 to 100 | 10 to 100

SMILES | EC50 [1] [nM] | EC50 [2] [nM] | EC50 [3] [nM] | EC50 [4] [nM]
CC(=O)c1cc(C)c(Oc2nc(Nc3ccc(C#N)cc3)nc3c(Cl)c[nH]c23)c(C)c1 [Cpd 67] | < 10 | < 10 | 10 to 100 | < 10
Cc1cc(Br)cc(C)c1Oc1nc(Nc2ccc(C#N)cc2)nc2[nH]ccc12 [Cpd 6] | < 10 | 10 to 100 | 10 to 100 | 10 to 100
Cc1cc(Cl)cc(C)c1Oc1nc(Nc2ccc(C#N)cc2)nc2[nH]ccc12 [Cpd 11] | < 10 | 10 to 100 | < 10 | 10 to 100
Cc1cc(C#N)cc(C)c1Oc1nc(Nc2ccc(C#N)cc2)nc2c(Br)cn(C)c12 [Cpd 70] | < 10 | < 10 | < 10 | < 10
N#Cc1ccc(Nc2nc(Nc3ccc(C4CC4)c4ccccc34)c3nc[nH]c3n2)cc1 [Cpd 22] | < 10 | > 100 | > 100 | > 100
Cc1cc(C)c(Oc2nc(Nc3ccc(C#N)cc3)nc3cc[nH]c23)c(C)c1 [Cpd 37] | < 10 | < 10 | < 10 | < 10
Cc1cc(C2CC2)cc(C)c1Oc1nc(Nc2ccc(C#N)cc2)nc2cc[nH]c12 [Cpd 52] | < 10 | < 10 | < 10 | < 10
COc1ccc(Nc2nc(Oc3c(C)cc(C)cc3C)c3nc[nH]c3n2)cc1 [Cpd 35] | < 10 | > 100 | > 100 | 10 to 100
Cc1cc(C)c(Oc2nc(Nc3cccc(C(F)(F)F)c3)nc3[nH]cnc23)c(C)c1 [Cpd 39] | > 100 | > 100 | > 100 | > 100
Cc1cc(Cl)cc(C)c1Oc1nc(Nc2ccc(C#N)cc2)nc2c(Cl)cn(C)c12 [Cpd 62] | < 10 | < 10 | < 10 | < 10
Cc1cc(C)c(Sc2nc(Nc3ccc(C#N)cc3)nc3c(Br)c[nH]c23)c(C)c1 [Cpd 55] | < 10 | > 100 | 10 to 100 | 10 to 100
N#Cc1ccc(Nc2nc(Oc3ccc(Cl)c4ccccc34)c3nc[nH]c3n2)cc1 [Cpd 21] | < 10 | > 100 | 10 to 100 | 10 to 100
Cc1cc(C)c(Sc2nc(Nc3ccc(C#N)cc3)nc3c(Cl)c[nH]c23)c(C)c1 [Cpd 53] | < 10 | > 100 | 10 to 100 | 10 to 100
Cc1cc(C)c(Sc2nc(Nc3ccc(C#N)cc3)nc3cc[nH]c23)c(C)c1 [Cpd 51] | < 10 | 10 to 100 | < 10 | < 10
Cc1ccc2ccccc2c1Nc1nc(Nc2ccc(C#N)cc2)nc2[nH]cnc12 [Cpd 32] | < 10 | > 100 | > 100 | 10 to 100
Cc1cc(C2CC2)cc(C)c1Nc1nc(Nc2ccc(C#N)cc2)nc2[nH]cnc12 [Cpd 28] | < 10 | 10 to 100 | 10 to 100 | < 10
Cc1ccc(Oc2nc(Nc3ccc(C#N)cc3)nc3[nH]ccc23)c(C)c1 [Cpd 9] | < 10 | > 100 | > 100 | > 100
Cc1cc(Br)cc(C)c1Oc1nc(Nc2ccc(C#N)cc2)nc2ccn(Cc3ccccc3)c12 [Cpd 58] | 10 to 100 | > 100 | > 100 | 10 to 100
Cc1cc(C2CC2)cc(C)c1Oc1nc(Nc2ccc(C#N)cc2)nc2ccn(Cc3ccccc3)c12 [Cpd 47] | 10 to 100 | > 100 | > 100 | 10 to 100
Cc1cc(Cl)cc(C)c1Oc1nc(Nc2ccc(C#N)cc2)nc2ccn(Cc3ccccc3)c12 [Cpd 63] | 10 to 100 | > 100 | > 100 | 10 to 100
COc1cc(C)cc(OC)c1Oc1nc(Nc2ccc(C#N)cc2)nc2[nH]cnc12 [Cpd 50] | < 10 | > 100 | 10 to 100 | < 10
Cc1cc(C#N)cc(C)c1Oc1nc(Nc2ccc(C#N)cc2)nc2cc[nH]c12 [Cpd 42] | < 10 | < 10 | < 10 | < 10
Cc1cccc(C)c1Oc1nc(Nc2ccc(C#N)cc2)nc2cc[nH]c12 [Cpd 65] | < 10 | > 100 | < 10 | < 10
Cc1cc(C)c(Oc2nc(Nc3cccc(C#N)c3)nc3[nH]cnc23)c(C)c1 [Cpd 36] | < 10 | > 100 | > 100 | 10 to 100
N#Cc1ccc(Nc2nc(Nc3ccc4c(c3)CCC4)c3nc[nH]c3n2)cc1 [Cpd 29] | < 10 | > 100 | > 100 | > 100
